Test results: US10300074B2, “Use of inhibitor of apoptosis protein (IAP) antagonists in HIV therapy” (Sanford-Burnham Medical Research Institute, priority 2014, dated 2019)

Assays:
[1] = system: Latently infected Jurkat JLat 10.6 cells; settings: HDAC inhibitor in combination with Compound 35, 36 hours, normalized against background of HDAC inhibitor alone
[2] = target: XIAP BIR3 (Homo sapiens (Human), UniProt P98170); experiment: XIAP BIR3 Ki; format: binding
[3] = target: XIAP BIR1/2 (Homo sapiens (Human), UniProt P98170); experiment: XIAP BIR1/2 Ki; format: binding
[4] = target: ML-IAP (Homo sapiens (Human), UniProt Q96CA5); experiment: ML-IAP Ki; format: binding
Sequence of ML-IAP (Q96CA5 whole entry): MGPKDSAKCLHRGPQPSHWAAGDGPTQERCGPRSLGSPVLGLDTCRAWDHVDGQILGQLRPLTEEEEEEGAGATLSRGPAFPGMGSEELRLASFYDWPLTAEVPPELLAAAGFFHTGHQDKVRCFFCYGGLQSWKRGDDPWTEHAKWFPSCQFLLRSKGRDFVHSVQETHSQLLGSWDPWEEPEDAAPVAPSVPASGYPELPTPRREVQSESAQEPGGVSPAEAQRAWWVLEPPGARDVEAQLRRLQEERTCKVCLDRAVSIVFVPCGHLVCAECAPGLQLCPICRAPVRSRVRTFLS

Sequence of XIAP BIR1/2 (P98170 1-240): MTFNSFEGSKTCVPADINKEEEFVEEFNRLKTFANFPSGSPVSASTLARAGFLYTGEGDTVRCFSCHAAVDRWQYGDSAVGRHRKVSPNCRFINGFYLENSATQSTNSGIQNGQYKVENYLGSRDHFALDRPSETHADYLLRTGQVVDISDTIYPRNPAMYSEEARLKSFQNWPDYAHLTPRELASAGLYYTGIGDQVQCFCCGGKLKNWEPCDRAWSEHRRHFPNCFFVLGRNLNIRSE
Sequence of XIAP BIR3 (P98170 241-356): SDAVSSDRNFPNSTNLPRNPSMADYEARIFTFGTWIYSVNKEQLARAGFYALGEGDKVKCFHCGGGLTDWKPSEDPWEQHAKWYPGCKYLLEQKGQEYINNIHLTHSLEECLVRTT

CCCC(=O)OCc1ccc(OC(=O)/C=C(C)/C=C/C=C(C)/C=C/C2=C(C)CCCC2(C)C)cc1 [ATRA-BA Hybrid, Retinoic acid, 4-[(1-oxobutoxy)methyl]phenyl ester]
Group: increase of GFP+ cells [1]: A (A 0-25%)

CCC(=O)CCCCC[C@@H]1NC(=O)[C@H]2CCCCN2C(=O)[C@H]([C@@H](C)CC)NC(=O)[C@H](Cc2cn(OC)c3ccccc23)NC1=O [Apicidin]
Group: increase of GFP+ cells [1]: C (C 50-75%)

Nc1ccccc1NC(=O)CCCCCCC(=O)Nc1ccccc1 [BML-210, Octanediamide, N1-(2-aminophenyl)-N8-phenyl-]
Group: increase of GFP+ cells [1]: A (A 0-25%)

CC(C)(C)OC(=O)Nc1ccc(-c2cc(C(=O)NCCCCCCC(=O)NO)no2)cc1 [BML-281, Carbamic acid, N-[4-[3-[[[7-(hydroxyamino)-7-oxoheptyl]amino]carbonyl]-5-isoxazolyl]phenyl]-, 1,1-dimethylethyl ester]
Group: increase of GFP+ cells [1]: B (B 25-50%)

CC(=O)Nc1ccc(C(=O)Nc2ccccc2N)cc1 [CI-994, Benzamide, 4-(acetylamino)-N-(2-aminophenyl)-]
Group: increase of GFP+ cells [1]: A (A 0-25%)

CN[C@@H](C)C(=O)N[C@H]1CO[C@H]2CCC(C(=O)Nc3ccc(OC)cc3)N2C1=O (some centres unmarked) [Compound 3]
Ki ([2]; Table B-1): 25 to 50 µM

CN[C@@H](C)C(=O)N[C@H]1CO[C@H]2CCC(C(=O)Nc3ccc(OC)cc3)N2C1=O (some centres unmarked) [Compound 4]
Ki ([2]; Table B-1): 25 to 50 µM
Ki ([3]; Table B-1): > 50 µM

CN[C@@H](C)C(=O)N[C@H]1CO[C@H]2CCC(C(=O)NCc3ccccc3)N2C1=O (some centres unmarked) [Compound 5]
Ki ([2]; Table B-1): 25 to 50 µM
Ki ([3]; Table B-1): > 50 µM

CN[C@@H](C)C(=O)N[C@H]1CO[C@H]2CCC(C(=O)NCc3ccccc3)N2C1=O (some centres unmarked) [Compound 6]
Ki ([2]; Table B-1): 25 to 50 µM

CN[C@@H](C)C(=O)N[C@H]1CO[C@H]2CCC(C(=O)Nc3ccc(OC)cc3)N2C1=O (some centres unmarked) [Compound 7]
Ki ([2]; Table B-1): 25 to 50 µM

CN[C@@H](C)C(=O)N[C@H]1CO[C@H]2CCC(C(=O)Nc3ccc(Cl)cc3)N2C1=O (some centres unmarked) [Compound 8]
Ki ([2]; Table B-1): 25 to 50 µM
Ki ([3]; Table B-1): > 50 µM

CN[C@@H](C)C(=O)N[C@H]1CO[C@H]2CCC(C(=O)NC3CCCc4ccccc43)N2C1=O (some centres unmarked) [Compound 9]
Ki ([2]; Table B-1): ≤ 25 µM
Ki ([3]; Table B-1): > 50 µM

CN[C@@H](C)C(=O)N[C@@H]1C(=O)N2C(C(=O)NC3CCCc4ccccc43)CC[C@@H]2O[C@@H]1C (some centres unmarked) [Compound 10]
Ki ([2]; Table B-1): ≤ 25 µM
Ki ([3]; Table B-1): > 50 µM
Ki ([4]; Table B-1): ≤ 25 µM

CN[C@@H](C)C(=O)N[C@@H]1C(=O)N2C(C(=O)Nc3cccc4ccccc34)CC[C@@H]2O[C@@H]1C (some centres unmarked) [Compound 11]
Ki ([2]; Table B-1): 25 to 50 µM
Ki ([3]; Table B-1): > 50 µM

CN[C@@H](C)C(=O)N[C@H]1CCO[C@H]2CCC(C(=O)N[C@@H]3CCCc4ccccc43)N2C1=O (some centres unmarked) [Compound 12]
Ki ([2]; Table B-1): ≤ 25 µM
Ki ([3]; Table B-1): > 50 µM
Ki ([4]; Table B-1): ≤ 25 µM

CN[C@@H](C)C(=O)N[C@H]1CCO[C@H]2CCC(C(=O)Nc3cccc4ccccc34)N2C1=O (some centres unmarked) [Compound 13]
Ki ([2]; Table B-1): ≤ 25 µM
Ki ([3]; Table B-1): ≤ 25 µM

CN[C@@H](C)C(=O)N[C@H]1CCO[C@H]2CCC(C(=O)NC(c3ccccc3)c3ccccc3)N2C1=O (some centres unmarked) [Compound 14]
Ki ([2]; Table B-1): ≤ 25 µM
Ki ([3]; Table B-1): > 50 µM
Ki ([4]; Table B-1): ≤ 25 µM

CN[C@@H](C)C(=O)N[C@@H]1C(=O)N2C(C(=O)NC(c3ccccc3)c3ccccc3)CC[C@@H]2O[C@@H]1C (some centres unmarked) [Compound 15]
Ki ([2]; Table B-1): 25 to 50 µM
Ki ([3]; Table B-1): > 50 µM

CN[C@@H](C)C(=O)N[C@H]1CCCNC2CCC(C(=O)NC3CCCc4ccccc43)N2C1=O (some centres unmarked) [Compound 16]
Ki ([2]; Table B-1): ≤ 25 µM
Ki ([3]; Table B-1): 25 to 50 µM

CN[C@@H](C)C(=O)N[C@H]1CCCNC2CCC(C(=O)Nc3cccc4ccccc34)N2C1=O (some centres unmarked) [Compound 17]
Ki ([2]; Table B-1): ≤ 25 µM
Ki ([3]; Table B-1): ≤ 25 µM

CN[C@@H](C)C(=O)N[C@H]1CCO[C@H]2c3ccccc3C(C(=O)N[C@@H]3CCCc4ccccc43)N2C1=O (some centres unmarked) [Compound 17a]
Ki ([2]; Table 2-2): ≤ 25 µM
Ki ([3]; Table 2-2): > 50 µM
Ki ([4]; Table 2-2): ≤ 25 µM

CN[C@@H](C)C(=O)N[C@H]1CCO[C@H]2CC(C)(C)C(C(=O)N[C@@H]3CCCc4ccccc43)N2C1=O (some centres unmarked) [Compound 17b]
Ki ([2]; Table 2-2): ≤ 25 µM
Ki ([3]; Table 2-2): ≤ 25 µM
Ki ([4]; Table 2-2): ≤ 25 µM

CN[C@@H](C)C(=O)N[C@H]1CCS[C@H]2CC(C)(C)C(C(=O)N[C@@H]3CCCc4ccccc43)N2C1=O (some centres unmarked) [Compound 17c]
Ki ([2]; Table 2-2): ≤ 25 µM
Ki ([4]; Table 2-2): ≤ 25 µM

CC(=O)N(C)[C@@H](C)C(=O)N[C@H]1CCCN(C(C)=O)[C@H]2CCC(C(=O)Nc3cccc4ccccc34)N2C1=O (some centres unmarked) [Compound 18]
Ki ([2]; Table B-1): 25 to 50 µM
Ki ([3]; Table B-1): > 50 µM

CC(=O)N(C)[C@@H](C)C(=O)N[C@H]1CCCN(C(C)=O)[C@H]2CCC(C(=O)Nc3cccc4ccccc34)N2C1=O (some centres unmarked) [Compound 19]
Ki ([2]; Table B-1): 25 to 50 µM

CN[C@@H](C)C(=O)N[C@H]1CCCN(C(C)=O)C2CCC(C(=O)NC3CCCc4ccccc43)N2C1=O (some centres unmarked) [Compound 20]
Ki ([2]; Table B-1): ≤ 25 µM
Ki ([3]; Table B-1): > 50 µM

CN[C@@H](C)C(=O)N[C@H]1CCO[C@H]2CCC(C(=O)n3ccc4ccccc43)N2C1=O (some centres unmarked) [Compound 22]
Ki ([2]; Table B-1): 25 to 50 µM
Ki ([3]; Table B-1): > 50 µM

CN[C@@H](C)C(=O)N[C@H]1CCO[C@H]2CCC(C(=O)n3ccc4ccccc43)N2C1=O (some centres unmarked) [Compound 23]
Ki ([2]; Table B-1): 25 to 50 µM

CN[C@@H](C)C(=O)N[C@H]1CCO[C@H]2CC[C@@H](C(=O)Nc3cccc4ccccc34)N2C1=O [Compound 25]
Ki ([2]; Table B-1): ≤ 25 µM
Ki ([3]; Table B-1): ≤ 25 µM

CN[C@@H](C)C(=O)N[C@H]1CCN[C@H]2CCC(C(=O)N[C@@H]3CCCc4ccccc43)N2C1=O (some centres unmarked) [Compound 28]
Ki ([2]; Table B-1): 25 to 50 µM
Ki ([3]; Table B-1): > 50 µM

CN[C@@H](C)C(=O)N[C@H]1CCN[C@H]2CCC(C(=O)N[C@@H]3CCCc4ccccc43)N2C1=O (some centres unmarked) [Compound 29]
Ki ([2]; Table B-1): > 50 µM
Ki ([3]; Table B-1): > 50 µM

CN[C@@H](C)C(=O)N[C@H]1Cc2c([nH]c3ccccc23)[C@H]2CCC(C(=O)N[C@@H]3CCCc4ccccc43)N2C1=O (some centres unmarked) [Compound 30]
Ki ([2]; Table B-1): 25 to 50 µM
Ki ([3]; Table B-1): > 50 µM

CN[C@@H](C)C(=O)N[C@H]1Cc2c([nH]c3ccccc23)[C@H]2CCC(C(=O)N[C@@H]3CCCc4ccccc43)N2C1=O (some centres unmarked) [Compound 31]
Ki ([2]; Table B-1): ≤ 25 µM
Ki ([3]; Table B-1): ≤ 25 µM

CN[C@@H](C)C(=O)N[C@H]1CCS(=O)(=O)[C@H]2CC[C@@H](C(=O)N[C@@H]3CCCc4ccccc43)N2C1=O [Compound 37]
Ki ([2]; Table B-1): ≤ 25 µM
Ki ([3]; Table B-1): > 50 µM

CN[C@@H](C)C(=O)N[C@H]1CCS(=O)(=O)[C@H]2CC[C@H](C(=O)N[C@@H]3CCCc4ccccc43)N2C1=O [Compound 38]
Ki ([2]; Table B-1): 25 to 50 µM
Ki ([3]; Table B-1): > 50 µM

CN[C@@H](C)C(=O)N[C@H]1CCO[C@H]2CC[C@H](C(=O)N[C@@H]3CCOc4ccccc43)N2C1=O [Compound 39]
Ki ([2]; Table B-1): 25 to 50 µM
Ki ([3]; Table B-1): > 50 µM

CN[C@@H](C)C(=O)N[C@H]1CCO[C@H]2CC(C)(C)C(C(=O)Nc3ccccc3SSc3ccccc3NC(=O)C3N4C(=O)[C@@H](NC(=O)[C@H](C)NC)CCO[C@H]4CC3(C)C)N2C1=O (some centres unmarked) [Compound 40]
Ki ([2]; Table B-1): ≤ 25 µM
Ki ([3]; Table B-1): ≤ 25 µM

CN[C@@H](C)C(=O)N[C@H]1CCS[C@H]2CCCC(C(=O)N[C@@H]3CCCc4ccccc43)N2C1=O (some centres unmarked) [Compound 41]
Ki ([2]; Table B-1): ≤ 25 µM
Ki ([3]; Table B-1): ≤ 25 µM

CN[C@@H](C)C(=O)N[C@H]1CCO[C@H]2CC3(CCCC3)C(C(=O)N[C@@H]3CCCc4ccccc43)N2C1=O (some centres unmarked) [Compound 43]
Ki ([2]; Table B-1): ≤ 25 µM
Ki ([3]; Table B-1): ≤ 25 µM

CN[C@@H](C)C(=O)N[C@H]1Cc2ccc(O)cc2[C@H]2CC(C)(C)C(C(=O)N[C@@H]3CCCc4ccccc43)N2C1=O (some centres unmarked) [Compound 45]
Ki ([2]; Table B-1): ≤ 25 µM
Ki ([3]; Table B-1): ≤ 25 µM

CN(C)c1ccc(C(=O)NCCCCCCC(=O)NO)cc1 [Compound M344, Benzamide, 4-(dimethylamino)-N-[7-(hydroxyamino)-7-oxoheptyl]-]
Group: increase of GFP+ cells [1]: C (C 50-75%)

Cc1cc(Cl)ccc1OCCCC(=O)NO [Droxinostat]
Group: increase of GFP+ cells [1]: B (B 25-50%)

O=C(CCCCCCSc1ccc2ccccc2c1)NO [HNHA, Heptanamide, N-hydroxy-7-(2-naphthalenylthio)-]
Group: increase of GFP+ cells [1]: B (B 25-50%)

Cc1ccc(C(=O)c2cc(C=CC(=O)NO)n(C)c2)cc1 [MC-1293, 2-Propenamide, N-hydroxy-3-[1-methyl-4-(4-methylbenzoyl)-1H-pyrrol-2-yl]-]
Group: increase of GFP+ cells [1]: B (B 25-50%)

CC(C)C(=O)SCCCCCCC(=O)Nc1nc(-c2ccccc2)cs1 [NCH-51, Propanethioic acid, 2-methyl-, S-[7-oxo-7-[(4-phenyl-2-thiazolyl)amino]heptyl] ester]
Group: increase of GFP+ cells [1]: A (A 0-25%)

CC(CC1OCCN(Cc2nc(=O)[nH][nH]2)C1c1ccc(F)cc1)c1cc(C(F)(F)F)cc(C(F)(F)F)c1 (centres unmarked) [NKL 22, 3H-1,2,4-Triazol-3-one, 5-[[2-[2-[3,5-bis(trifluoromethyl)phenyl]propyl]-3-(4-fluorophenyl)-4-morpholinyl]methyl]-1,2-dihydro-]
Group: increase of GFP+ cells [1]: A (A 0-25%)

O=Nc1ccc(O)c2ncccc12 [NSC-3852, 8-Quinolinol, 5-nitroso-]
Group: increase of GFP+ cells [1]: B (B 25-50%)

O=C([O-])CCCc1ccccc1.[Na+] [Phenylbutyrate•Na, Phenylbutyrate⋅Na]
Group: increase of GFP+ cells [1]: A (A 0-25%)

O=C(CCCCCN1C(=O)c2cccc3cccc(c23)C1=O)NO [Scriptaid]
Group: increase of GFP+ cells [1]: C (C 50-75%)

O=C(CCCCCCC(=O)NO)NO [Suberoyl bis-hydroxamic acid]
Group: increase of GFP+ cells [1]: B (B 25-50%)

CC(/C=C/C(=O)NO)=C\[C@@H](C)C(=O)c1ccc(N(C)C)cc1 [Trichostatin A]
Group: increase of GFP+ cells [1]: C (C 50-75%)

CCCC(CCC)C(=O)O [Valproic acid, valproic acid]
Group: increase of GFP+ cells [1]: A (A 0-25%)

O=C(CCCCCCC(=O)Nc1ccc(F)cc1)NO [p-Fluoro-SAHA]
Group: increase of GFP+ cells [1]: A (A 0-25%)

Oxamflatin
Group: increase of GFP+ cells [1]: C (C 50-75%)
